Reference: ChEMBL document CHEMBL6074667, “Discovery and Optimization of First-in-Class Molecular Glue Degraders of the WIZ Transcription Factor for Fetal Hemoglobin Induction to Treat Sickle Cell Disease” (J Med Chem, 2024)
Values after ≈ are worked out from the molar mass of the structure shown. Active and inactive are the calls of the source. No cut-off for these calls is given here.

Experiments:
[1] = target: T1, Protein cereblon/Sal-like protein 4 (Homo sapiens, UniProt Q96SW2+Q9UJQ4); assay: Molecular glue activity at CRBN/HiBiT-tagged SALL4 (unknown origin) expressed in human GripTite 293 MSR cells assessed as induction of SALL4 degradation incubated for 20 hrs by Nano-Glo HiBiT-Lytic reagent based luminescence plate reader analysis relative to control; type: cell-based; set-up: concentration or dose not given beside the values
Cereblon/Ikaros [2] = target: T2, Cereblon/Ikaros (Homo sapiens, UniProt Q96SW2+Q13422); assay: Molecular glue activity at CRBN/HiBiT-tagged IKZF1 (unknown origin) expressed in human GripTite 293 MSR cells assessed as induction of […] incubated for 20 hrs by Nano-Glo HiBiT-Lytic reagent based luminescence plate reader analysis relative to control; type: cell-based; set-up: concentration or dose not given beside the values
[3] = target: T3, Protein cereblon/Eukaryotic peptide chain release factor GTP-binding subunit ERF3A (Homo sapiens, UniProt Q96SW2+P15170); assay: Molecular glue activity at CRBN/HiBiT-tagged GSPT1 (unknown origin) expressed in human GripTite 293 MSR cells assessed as induction of GSPT1 degradation incubated for 20 hrs by Nano-Glo HiBiT-Lytic reagent based luminescence plate reader analysis relative to control; type: cell-based; set-up: concentration or dose not given beside the values
Target sequence in this assay (P15170 whole entry, looked up): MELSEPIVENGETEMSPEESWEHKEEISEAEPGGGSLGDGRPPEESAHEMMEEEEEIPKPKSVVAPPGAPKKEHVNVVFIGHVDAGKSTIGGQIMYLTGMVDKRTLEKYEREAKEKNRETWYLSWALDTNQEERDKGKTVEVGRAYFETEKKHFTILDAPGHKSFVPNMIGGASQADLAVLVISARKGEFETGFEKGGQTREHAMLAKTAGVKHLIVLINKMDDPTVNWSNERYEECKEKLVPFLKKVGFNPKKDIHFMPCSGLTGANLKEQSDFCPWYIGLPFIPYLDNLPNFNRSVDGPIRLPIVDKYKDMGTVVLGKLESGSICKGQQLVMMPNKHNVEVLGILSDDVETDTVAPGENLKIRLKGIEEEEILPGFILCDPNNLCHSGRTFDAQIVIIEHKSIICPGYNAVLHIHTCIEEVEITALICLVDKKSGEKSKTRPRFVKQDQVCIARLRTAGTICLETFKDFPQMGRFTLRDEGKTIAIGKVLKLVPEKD
Target sequence in this assay (Q96SW2 whole entry, looked up): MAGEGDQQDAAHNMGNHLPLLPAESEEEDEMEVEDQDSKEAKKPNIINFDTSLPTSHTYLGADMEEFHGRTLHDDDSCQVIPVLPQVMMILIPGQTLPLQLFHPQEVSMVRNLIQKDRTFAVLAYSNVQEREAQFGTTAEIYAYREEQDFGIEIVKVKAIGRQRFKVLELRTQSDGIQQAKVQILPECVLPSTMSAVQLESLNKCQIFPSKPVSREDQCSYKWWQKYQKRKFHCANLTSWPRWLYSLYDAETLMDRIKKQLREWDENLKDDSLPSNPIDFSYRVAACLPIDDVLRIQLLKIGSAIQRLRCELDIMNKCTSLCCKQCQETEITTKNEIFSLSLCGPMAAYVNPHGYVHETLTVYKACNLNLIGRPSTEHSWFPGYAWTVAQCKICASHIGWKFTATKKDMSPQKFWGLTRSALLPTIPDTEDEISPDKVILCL

[4] = target: T4, Protein cereblon/Protein Wiz (Homo sapiens, UniProt Q96SW2+O95785); assay: Molecular glue activity at CRBN/HiBiT-tagged WIZ (unknown origin) expressed in HEK293T cells assessed as induction of WIZ degradation incubated for 18 hrs by Nano-Glo HiBiT-Lytic reagent based luminescence plate reader analysis relative to control; type: cell-based; set-up: concentration or dose not given beside the values
Cereblon/Ikaros [5] = target: T2, Cereblon/Ikaros; assay: Molecular glue activity at CRBN/HiBiT-tagged IKZF1 (unknown origin) expressed in human GripTite 293 MSR cells assessed as induction of […] incubated for 20 hrs by Nano-Glo HiBiT-Lytic reagent based luminescence plate reader analysis; type: cell-based
[6] = target: T3, Protein cereblon/Eukaryotic peptide chain release factor GTP-binding subunit ERF3A; assay: Molecular glue activity at CRBN/HiBiT-tagged GSPT1 (unknown origin) expressed in human GripTite 293 MSR cells assessed as induction of GSPT1 degradation incubated for 20 hrs by Nano-Glo HiBiT-Lytic reagent based luminescence plate reader analysis; type: cell-based
Target sequence in this assay (Q96SW2 whole entry): as the sequence (Q96SW2 whole entry, looked up) above
Target sequence in this assay (P15170 whole entry): as the sequence (P15170 whole entry, looked up) above

[7] = target: T1, Protein cereblon/Sal-like protein 4; assay: Molecular glue activity at CRBN/HiBiT-tagged SALL4 (unknown origin) expressed in human GripTite 293 MSR cells assessed as induction of SALL4 degradation incubated for 20 hrs by Nano-Glo HiBiT-Lytic reagent based luminescence plate reader analysis; type: cell-based
[8] = target: T4, Protein cereblon/Protein Wiz; assay: Molecular glue activity at CRBN/HiBiT-tagged WIZ (unknown origin) expressed in HEK293T cells assessed as induction of WIZ degradation incubated for 18 hrs by Nano-Glo HiBiT-Lytic reagent based luminescence plate reader analysis; type: cell-based
Target sequence in this assay (Q96SW2 whole entry): as the sequence (Q96SW2 whole entry, looked up) above
Target sequence in this assay (O95785 whole entry): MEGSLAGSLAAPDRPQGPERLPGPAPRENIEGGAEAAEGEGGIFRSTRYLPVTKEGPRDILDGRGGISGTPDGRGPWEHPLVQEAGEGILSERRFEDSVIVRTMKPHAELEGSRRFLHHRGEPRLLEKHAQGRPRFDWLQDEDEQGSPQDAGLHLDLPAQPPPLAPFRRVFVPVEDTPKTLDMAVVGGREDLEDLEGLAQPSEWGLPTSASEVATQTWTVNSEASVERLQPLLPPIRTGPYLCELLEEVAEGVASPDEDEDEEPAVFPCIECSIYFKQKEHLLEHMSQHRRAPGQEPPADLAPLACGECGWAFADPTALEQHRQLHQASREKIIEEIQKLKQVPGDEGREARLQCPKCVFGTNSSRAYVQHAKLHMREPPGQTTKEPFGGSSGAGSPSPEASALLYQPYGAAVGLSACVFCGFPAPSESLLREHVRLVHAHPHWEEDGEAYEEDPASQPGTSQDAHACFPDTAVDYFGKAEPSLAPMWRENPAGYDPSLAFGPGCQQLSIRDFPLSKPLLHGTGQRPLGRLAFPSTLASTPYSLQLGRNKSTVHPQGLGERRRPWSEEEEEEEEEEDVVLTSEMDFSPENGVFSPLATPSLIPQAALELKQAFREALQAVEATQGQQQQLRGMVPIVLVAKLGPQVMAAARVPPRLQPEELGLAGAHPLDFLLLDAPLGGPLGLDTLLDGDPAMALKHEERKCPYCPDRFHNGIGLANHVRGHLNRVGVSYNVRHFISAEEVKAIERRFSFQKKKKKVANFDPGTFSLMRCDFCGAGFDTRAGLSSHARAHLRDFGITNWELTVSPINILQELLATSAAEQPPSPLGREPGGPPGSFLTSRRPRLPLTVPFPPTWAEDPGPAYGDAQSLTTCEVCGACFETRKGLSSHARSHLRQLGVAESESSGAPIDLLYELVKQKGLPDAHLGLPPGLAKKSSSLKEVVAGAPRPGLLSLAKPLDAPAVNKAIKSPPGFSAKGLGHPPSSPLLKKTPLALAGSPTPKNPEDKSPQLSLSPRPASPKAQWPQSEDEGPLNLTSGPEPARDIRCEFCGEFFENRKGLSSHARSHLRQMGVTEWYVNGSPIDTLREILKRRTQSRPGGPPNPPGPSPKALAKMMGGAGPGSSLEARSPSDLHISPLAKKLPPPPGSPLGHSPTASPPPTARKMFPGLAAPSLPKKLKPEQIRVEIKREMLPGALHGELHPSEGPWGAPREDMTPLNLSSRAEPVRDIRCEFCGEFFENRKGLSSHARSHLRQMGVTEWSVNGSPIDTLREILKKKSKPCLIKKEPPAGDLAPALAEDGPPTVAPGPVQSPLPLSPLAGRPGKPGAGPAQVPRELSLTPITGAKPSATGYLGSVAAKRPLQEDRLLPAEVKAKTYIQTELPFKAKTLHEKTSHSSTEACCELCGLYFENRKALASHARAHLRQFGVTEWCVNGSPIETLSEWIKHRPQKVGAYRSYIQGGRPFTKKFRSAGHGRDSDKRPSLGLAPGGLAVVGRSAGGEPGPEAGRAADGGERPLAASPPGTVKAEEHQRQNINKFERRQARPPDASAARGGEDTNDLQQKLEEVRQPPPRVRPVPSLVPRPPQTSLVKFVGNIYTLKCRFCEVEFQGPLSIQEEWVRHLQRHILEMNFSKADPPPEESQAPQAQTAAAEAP

[9] = target: T4, Protein cereblon/Protein Wiz; assay: Molecular glue activity at CRBN/WIZ in human CD34-positive derived primary erythroblast cells assessed as induction of WIZ degradation by measuring maximal efficacy measured after 24 hrs by flow cytometric analysis relative to control; type: cell-based
[10] = target: T4, Protein cereblon/Protein Wiz; assay: In vivo molecular glue activity at CRBN/WIZ in immunocompromised naive NBSGW mouse xenografted with human CD34 positive HSPC cells assessed as fold increase in Hbf-positive cells in moCD45 negative hCD45negative CD71positive CD235A positive bone marrow cells at 0.01 to 1 mg/kg, po administered once daily for 21 days by staining based analysis; type: functional, organism-based; conditions: dose 0.01-1 mg/kg, time 21.0 day
[11] = target: T4, Protein cereblon/Protein Wiz; assay: In vivo molecular glue activity at CRBN/WIZ in immunocompromised naive NBSGW mouse xenografted with human CD34 positive HSPC cells assessed as induction of WIZ degradation in peripheral blood human […] B cells administered orally once daily for 21 days by staining based analysis; type: functional, organism-based; conditions: route po, time 21.0 day
[12] = target: T4, Protein cereblon/Protein Wiz; assay: Molecular glue activity at CRBN/WIZ in human CD34-positive derived primary erythroblast cells assessed as increase in fetal hemoglobin positive cells in CD71+ CD235a+ subpopulation measured after 7 days by flow cytometric analysis relative to control; type: cell-based; conditions: time 7.0 day
[13] = target: T4, Protein cereblon/Protein Wiz; assay: In vivo molecular glue activity at CRBN/WIZ in immunocompromised naive NBSGW mouse xenografted with human CD34 positive HSPC cells assessed as induction of WIZ degradation in peripheral blood human C19-positive B cells by measuring maximal efficacy at 0.01 to 1 mg/kg, po administered once daily for 21 days by staining based analysis relative to control; type: functional, organism-based; conditions: dose 0.01-1 mg/kg, time 21.0 day
[14] = Protein binding in rat plasma; type: ADME, cell-free; conditions: read-out: PPB (converted)
[15] = target: Protein cereblon/Protein Wiz (Homo sapiens, UniProt O95785+Q96SW2); assay: Molecular glue activity at CRBN/WIZ in human CD34-positive derived primary erythroblast cells assessed as increase in fetal hemoglobin positive cells in CD71+ CD235a+ subpopulation measured after 7 days by flow cytometric analysis; type: cell-based
[16] = Bioavailability last in C57BL/6 mouse; type: ADME, organism-based; conditions: in vivo
[17] = Tmax in C57BL/6 mouse at 3 mg/kg, po or 1 mg/kg, iv; type: ADME, organism-based; conditions: in vivo
[18] = Apparent permeability across apical to basolateral side in low efflux MDCK cells assessed as drug recovery at 10 uM incubated for 2 hrs by LC-MS analysis; type: ADME, cell-based, Canis lupus familiaris; conditions: dog, read-out: Drug recovery
[19] = Clearance in C57BL/6 mouse at 1 mg/kg, iv; type: ADME, organism-based; conditions: in vivo
[20] = Intrinsic clearance in human liver microsomes; type: ADME, Microsome; conditions: read-out: CLH
[21] = Solubility of compound in potassium phosphate buffer at pH 6.8 incubated for 16 to 24 hrs by high-throughput Agilent Rapidfire-MS/MS analysis; type: physicochemical; conditions: time 16-24 hrs
[22] = Half-life in C57BL/6 mouse at 1 mg/kg, iv; type: ADME, organism-based; conditions: in vivo
[23] = Cmax in C57BL/6 mouse at 3 mg/kg, po; type: ADME, organism-based; conditions: in vivo
[24] = Protein binding in mouse plasma; type: ADME, cell-free; conditions: read-out: PPB (converted)
[25] = Intrinsic clearance in rat liver microsomes; type: ADME, Microsome; conditions: read-out: CLH
[26] = AUClast in C57BL/6 mouse at 3 mg/kg, po; type: ADME, organism-based; conditions: in vivo
[27] = Intrinsic clearance in mouse liver microsomes; type: ADME, Microsome; conditions: read-out: CLH
[28] = Volume of distribution at steady state in C57BL/6 mouse at 1 mg/kg, iv; type: ADME, organism-based; conditions: in vivo, read-out: Vdss
[29] = target: T4, Protein cereblon/Protein Wiz; assay: Molecular glue activity at CRBN/WIZ in human CD34-positive derived primary erythroblast cells assessed as induction of WIZ degradation measured after 24 hrs by flow cytometric analysis; type: cell-based
Target sequence in this assay (Q96SW2 whole entry): as the sequence (Q96SW2 whole entry, looked up) above
Target sequence in this assay (O95785 whole entry): as the sequence (O95785 whole entry) above

[30] = Protein binding in human plasma; type: ADME, cell-free; conditions: read-out: PPB (converted)
[31] = Apparent permeability across apical to basolateral side in low efflux MDCK cells at 10 uM incubated for 2 hrs by LC-MS analysis; type: ADME, cell-based, Canis lupus familiaris; conditions: dog
[32] = target: T4, Protein cereblon/Protein Wiz; assay: Molecular glue activity at CRBN/WIZ in human CD34-positive derived primary erythroblast assessed as induction fetal hemoglobin by flow cytometric analysis; type: cell-based
[33] = target: T4, Protein cereblon/Protein Wiz; assay: Molecular glue activity at CRBN/WIZ in human CD34-positive derived primary erythroblast assessed as induction of WIZ degradation by flow cytometric analysis; type: cell-based
[34] = Toxicity in immunocompromised naive NBSGW mouse xenografted with human CD34 positive HSPC cells assessed as effect on body weight at 0.01 to 1 mg/kg, po administered once daily for 21 days; type: organism-based; conditions: in vivo, 504 h, dose 0.01-1 mg/kg, time 21 day

T2 sequence (Q96SW2 whole entry): as the sequence (Q96SW2 whole entry, looked up) above
T2 sequence (Q13422 whole entry): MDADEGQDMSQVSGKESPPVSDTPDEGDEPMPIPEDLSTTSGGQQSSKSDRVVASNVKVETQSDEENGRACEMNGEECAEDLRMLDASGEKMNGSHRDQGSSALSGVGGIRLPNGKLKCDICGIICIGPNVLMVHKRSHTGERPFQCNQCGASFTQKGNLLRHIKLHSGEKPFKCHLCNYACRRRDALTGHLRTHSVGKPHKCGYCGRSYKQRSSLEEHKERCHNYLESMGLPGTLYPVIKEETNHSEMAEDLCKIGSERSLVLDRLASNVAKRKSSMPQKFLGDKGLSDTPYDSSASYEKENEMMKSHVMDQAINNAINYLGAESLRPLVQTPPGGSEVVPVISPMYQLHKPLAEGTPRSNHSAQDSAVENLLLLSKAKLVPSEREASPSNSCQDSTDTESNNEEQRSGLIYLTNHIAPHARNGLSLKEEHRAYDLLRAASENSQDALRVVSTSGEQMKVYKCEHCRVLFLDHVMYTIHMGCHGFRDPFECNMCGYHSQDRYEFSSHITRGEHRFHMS

| Compound | Activity [1] | Activity (Cereblon/Ikaros [2]) | Activity [3] | Activity [4] | DC50 (Cereblon/Ikaros [5]) | DC50 [6] | DC50 [7] | DC50 [8] | further results |
| --- | --- | --- | --- | --- | --- | --- | --- | --- | --- |
| CCN1C[C@H](C)C[C@@H](Oc2ccc3c(c2)CN(C2CCC(=O)NC2=O)C3=O)C1 (mixture of isomers) [listing 1 of 2 here] | 15% | < 10% | < 10% | 78% |  |  |  |  |  |
| CCN1CCC[C@H](Oc2ccc3c(c2)CN(C2CCC(=O)NC2=O)C3=O)C1 (some centres not stated) | 27% | < 10% | < 10% | 12% | > 50 µM | > 50 µM | > 50 µM | > 25 µM |  |
| CCN1C[C@H](Oc2ccc3c(c2)CN(C2CCC(=O)NC2=O)C3=O)CC[C@H]1C (some centres not stated) | 27% | < 10% | < 10% | 60% | > 50 µM | > 50 µM | > 50 µM | 0.105 µM |  |
| CCN1C[C@H](C)C[C@@H](Oc2ccc3c(c2)CN(C2CCC(=O)NC2=O)C3=O)C1 (mixture of isomers) [listing 2 of 2 here] |  |  |  |  | > 50 µM | > 50 µM | > 50 µM | 0.013 µM |  |
| CCN1C[C@H](C)C[C@@H](Oc2ccc3c(c2)CN(C2CCC(=O)NC2=O)C3=O)C1 (stereo in doubt; 10) [listing 1 of 2 here] | 26% | < 10% | < 10% | 87% |  |  |  |  | Emax [9]: 84%; fold change (FC) [10]: 5; Activity [11]: Dose-dependent-effect; Activity [12]: 40%; Emax [13]: 60% |
| CCN1C[C@H](Oc2ccc3c(c2)CN(C2CCC(=O)NC2=O)C3=O)CC[C@@H]1C (some centres not stated) | 32% | 10% | < 10% | 88% | > 50 µM | > 50 µM | > 50 µM | 0.003 µM | fraction unbound [14]: 0.71; EC50 [15]: 0.078 µM; Emax [9]: 84%; bioavailability [16]: 8.5%; Tmax [17]: 1 h; recovery at 2 h, 10 µM [18]: 75%; clearance [19]: 29 mL/min/kg; microsomal CLint [20]: < 25 µL/min/mg; solubility [21]: 480 µM (≈ 185 µg/mL); half-life [22]: 3.2 h; Cmax [23]: 118 nM; fraction unbound [24]: 0.77; Activity [12]: 36%; microsomal CLint [25]: < 25 µL/min/mg; AUC(0-t) [26]: 0.377 µM·h; microsomal CLint [27]: < 25 µL/min/mg; Vd [28]: 4.4 L/kg; DC50 [29]: 0.003 µM; fraction unbound [30]: 0.72; Papp A→B at 2 h, 10 µM [31]: 0.3 ×10⁻⁶ cm/s |
| CCN1CCC2(CC2)[C@@H](Oc2ccc3c(c2)CN(C2CCC(=O)NC2=O)C3=O)C1 (some centres not stated) | 11% | < 10% | < 10% | 82% | > 50 µM | > 50 µM | > 50 µM | 0.008 µM |  |
| CCN1C[C@@H](C)C[C@@H](Oc2ccc3c(c2)CN(C2CCC(=O)NC2=O)C3=O)C1 (mixture of isomers) | 32% | < 10% | < 10% | 42% | > 50 µM | > 50 µM | > 50 µM | > 25 µM |  |
| C[C@@H](Oc1ccc2c(c1)CN(C1CCC(=O)NC1=O)C2=O)[C@H]1CCCCN1C (some centres not stated) | 58% | < 11% | < 11% | 93% |  |  |  |  | fraction unbound [14]: 0.58; bioavailability [16]: 2.7%; Tmax [17]: 3 h; recovery at 2 h, 10 µM [18]: 66%; clearance [19]: 28 mL/min/kg; microsomal CLint [20]: < 25 µL/min/mg; Activity [32]: Active; solubility [21]: 640 µM (≈ 247 µg/mL); half-life [22]: 1.9 h; Cmax [23]: 24 nM; Activity [33]: Active; fraction unbound [24]: > 0.8; microsomal CLint [25]: < 25 µL/min/mg; AUC(0-t) [26]: 0.115 µM·h; microsomal CLint [27]: < 25 µL/min/mg; Vd [28]: 2.9 L/kg; fraction unbound [30]: 0.69; Papp A→B at 2 h, 10 µM [31]: 0.37 ×10⁻⁶ cm/s |
| CCN1CCC[C@@H](Oc2ccc3c(c2)CN(C2CCC(=O)NC2=O)C3=O)C1 (some centres not stated) | 28% | < 10% | < 10% | 77% | > 50 µM | > 50 µM | > 50 µM | 0.026 µM |  |
| CCN1C[C@H](C)C[C@@H](Oc2ccc3c(c2)CN(C2CCC(=O)NC2=O)C3=O)C1 (stereo in doubt; 10) [listing 2 of 2 here] |  |  |  |  |  |  |  | 0.003 µM | fraction unbound [14]: > 0.8; EC50 [15]: 0.04 µM; bioavailability [16]: 23%; Tmax [17]: 1.7 h; recovery at 2 h, 10 µM [18]: 84%; clearance [19]: 29 mL/min/kg; microsomal CLint [20]: < 10 µL/min/mg; solubility [21]: 380 µM (≈ 146 µg/mL); half-life [22]: 2.2 h; Cmax [23]: 224 nM; fraction unbound [24]: > 0.8; Activity [34]: Non-toxic; microsomal CLint [25]: < 10 µL/min/mg; AUC(0-t) [26]: 1.12 µM·h; microsomal CLint [27]: < 10 µL/min/mg; Vd [28]: 2.8 L/kg; DC50 [29]: 0.002 µM; fraction unbound [30]: 0.76; Papp A→B at 2 h, 10 µM [31]: 0.5 ×10⁻⁶ cm/s |
